Assay results from patent US7745465B2, “Method of enhancing cellular production of molecular chaperone, hydroxylamine derivatives useful for enhancing the chaperone production and the preparation thereof” (CytRx Corporation, priority 1995, dated 2010).

These compounds were tested on HSP72 (assay: Heat stress induced HSP72 production in 3T3 cells). Conditions: 10^−5 M, treatment 15 min. before 30 min. 43° C. heat stress.
Assay type: cell-based, mouse
Description: From the applied cells the 3T3 and L-929 mouse fibroblasts were cultured in MEM medium and grew in monolayer, the U-937 human leukemia cells were maintained in RPMI-1640 medium, in suspension culture, while the HeLa human epithelial cells were cultured in DMEM medium and in monolayer form. Cell cultures were maintained as described in example 6.2 (a) with the difference that cells were cultured in the above mentioned culture mediums.
Experiments were carried out applying stress before and after the drug treatment. Stress was provoked by heat, by chemical agent, HgCl2 treatment. The test compounds were applied in the treatments at the 10^−5 M concentration.
The experiments on 3T3 cell applying heat stress were performed as described in the 6.2. (c) point of example 6, with the difference that stress was induced by a 30 min. exposure at 43° C. temperature and treatment with the test compounds was performed 15 min. before or 100 min. after the heat stress.
Immunodetection was carried out using the HSP72 specific SPA 810 (StressGene) primary and the horse-radish peroxidase conjugated A9044 (Sigma) secondary antibodies. Densitometric evaluation was performed by a LKB Ultrascan XL densitometer.

**Q.** Which “HSP72 level relative to the stress exposed control” value does the source give for `Cl.c1cncc(C(=NOCCCN2CCCCC2)N2CCCC2)c1` [N-[3-(I-piperidinyl)-propoxy]-N′-tetramethylene-3-pyridine-carboxamidine hydrochloride] here?
**A.** +++ (>100%)

**Q.** Which “HSP72 level relative to the stress exposed control” value does the source give for `CC(=O)OC(CONC(=O)NC1CCCCC1)CN1CCCCC1.Cl` (stereo not drawn) [N-cyclohexyl-N′-[2-acetoxy-3-(1-piperidinyl)-propoxy]-urea hydrochloride] here?
**A.** 0 (0 indicates that the treatment altered by ±20% the stress induced hsp72 level in the cells)

**Q.** For `CCCCCCNC(=O)N(C)OCCCN1CCCCC1` [N-[3-(I-piperidinyl)-propoxy]-N-methyl-N′-(n-hexyl)-urea], which “HSP72 level relative to the stress exposed control” value is on record?
**A.** 0 (0 indicates that the treatment altered by ±20% the stress induced hsp72 level in the cells)

**Q.** With `CN(C)C(=Nc1ccccc1)NOCC(O)CN1CCCCC1.Cl` (stereo not drawn) [Example 71, N,N-dimethyl-N′-[2-hydroxy-3-(1-piperidinyl)-propoxy]-N″-phenyl-guanidine hydrochloride] as the compound, how does the “HSP72 level relative to the stress exposed control” value read?
**A.** 0 (0 indicates that the treatment altered by ±20% the stress induced hsp72 level in the cells)

**Q.** `O=C(O)/C=C\C(=O)O.c1cncc(C2=NOCC(CN3CCCCC3)O2)c1` (stereo not drawn) [3-(3-piridyl)-5-[(1-piperidinyl)-methyl]-5,6-dihydro-6H-1,4,2-dioxazine-(Z)-2-butenedioate(1:1)] was tested. Which “HSP72 level relative to the stress exposed control” value did it give?
**A.** ++ (51-100%)

**Q.** How did the “HSP72 level relative to the stress exposed control” value turn out when `Cl.OC(CON(C(=Nc1ccccc1)c1ccccc1)c1ccccc1)CN1CCCCC1` (stereo not drawn) [Example 73] was run?
**A.** 0 (0 indicates that the treatment altered by ±20% the stress induced hsp72 level in the cells)

**Q.** `Cl.c1ccc(C2=NOCC(CN3CCCCC3)O2)cc1` (stereo not drawn) [3-phenyl-5-[(1-piperidinyl)-methyl]-5,6-dihydro-6H-1,4,2-dioxazine hydrochloride] was tested. Which “HSP72 level relative to the stress exposed control” value did it give?
**A.** ++ (51-100%)

**Q.** Which “HSP72 level relative to the stress exposed control” value does the source give for `Cl.Cl.N=C(NOCC(O)CN1CCCCC1)c1cnc2ccccc2c1` (stereo not drawn) [Example 42] here?
**A.** +++ (>100%)

**Q.** For `C[n+]1cccc(C(Cl)=NOCC(O)C[N+]2(C)CCCCC2)c1.[I-].[I-]` (stereo not drawn) [Example 16, N′-[2-hydroxy-3-(1-methyl-1-piperidinium-1-yl)propoxy]-N-methyl-pyridinium-3-carboximidoyl chloride diiodide], which “HSP72 level relative to the stress exposed control” value is on record?
**A.** +++ (>100%)

**Q.** `O=C(NOCC(O)CN1CCCCC1)c1cccc2ccccc12` (stereo not drawn) [Example 54, N-[2-hydroxy-3-(1-piperidinyl)propoxy]naphthalene-1-carboxamide] was tested. Which “HSP72 level relative to the stress exposed control” value did it give?
**A.** +++ (>100%)

**Q.** “N-(2-hydroxy-3-piperidino-propoxy)-ethylurethane” was tested. Which “HSP72 level relative to the stress exposed control” value did it give?
**A.** + (21-50%)

**Q.** How did the “HSP72 level relative to the stress exposed control” value turn out when “N-[2-hydroxy-3-(1-piperidinyl)-propoxy]-benzylurethane” was run?
**A.** 0 (0 indicates that the treatment altered by ±20% the stress induced hsp72 level in the cells)

**Q.** `CN(OCCCN1CCCCC1)C(=O)c1cccc(C(F)(F)F)c1.Cl` [N-methyl-N-[3-(1-piperidinyl)-propoxy]-m-trifluoromethyl-benzamide hydrochloride] was tested. Which “HSP72 level relative to the stress exposed control” value did it give?
**A.** +++ (>100%)

**Q.** With `CN(C)C(=NOCCCN1CCCCC1)Nc1ccccc1.Cl` [N,N-dimethyl-N′-phenyl-N″-[3-(1-piperidinyl)-propoxy]-guanidine hydrochloride] as the compound, how does the “HSP72 level relative to the stress exposed control” value read?
**A.** ++ (51-100%)

**Q.** With `O=C(O)/C=C\C(=O)O.OC(CON=C(Cl)c1cccnc1)CN1CCCCC1` (single isomer, unassigned; (-)) [(−)N-[2-hydroxy-3-(1-piperidinyl)-propoxy]-3-pyridine-carboximidoyl-chloride-(Z)-2-butenedioate(1:1)] as the compound, how does the “HSP72 level relative to the stress exposed control” value read?
**A.** +++ (>100%)

**Q.** How did the “HSP72 level relative to the stress exposed control” value turn out when `COC(=NOCCCN1CCCCC1)c1cccnc1.O=C(O)/C=C\C(=O)O` [Methyl-{N-[3-(1-piperidinyl)-propoxy]}-3-pyridine-carboximidate maleate] was run?
**A.** 0 (0 indicates that the treatment altered by ±20% the stress induced hsp72 level in the cells)

**Q.** `CCCNC(=O)NOCC(O)CN1CCCCC1` (stereo not drawn) [Example 56, N-[2-hydroxy-3-(1-piperidinyl)propoxy]-N′-propyl-urea] was tested. Which “HSP72 level relative to the stress exposed control” value did it give?
**A.** +++ (>100%)

Same assay, conditions: 10^−5 M, treatment 100 min. after 30 min. 43° C. heat stress

**Q.** For `Cl.Cl.N=C(NOCC(O)CN1CCCCC1)c1cnc2ccccc2c1` (stereo not drawn) [Example 42], which “HSP72 level relative to the stress exposed control” value is on record?
**A.** +++ (>100%)

**Q.** How did the “HSP72 level relative to the stress exposed control” value turn out when `C[n+]1cccc(C(Cl)=NOCC(O)C[N+]2(C)CCCCC2)c1.[I-].[I-]` (stereo not drawn) [Example 16, N′-[2-hydroxy-3-(1-methyl-1-piperidinium-1-yl)propoxy]-N-methyl-pyridinium-3-carboximidoyl chloride diiodide] was run?
**A.** +++ (>100%)

**Q.** `O=C(NOCC(O)CN1CCCCC1)c1cccc2ccccc12` (stereo not drawn) [Example 54, N-[2-hydroxy-3-(1-piperidinyl)propoxy]naphthalene-1-carboxamide] was tested. Which “HSP72 level relative to the stress exposed control” value did it give?
**A.** ++ (51-100%)

These compounds were tested on Male Sprague-Dawley rats (assay: Protection against cardiac ischaemia: survival after 5 minutes coronary occlusion and reperfusion). Conditions: i.v. 1 mg/kgbw, 5 min. before the occlusion; non-treated control 10.
Assay type: in vivo, rat
Description: Male Sprague-Dawley rats (380-450 g b.w.) were anaesthetized with sodiumpentobarbital (Nembutal 60 mg/kg body weight, i.p.) and artificially ventilated with room air (2 ml/100 g; 54 stroke/minutes) via tracheotomy. The right carotid artery was catheterized and connected to a pressure transducer (BPR-01, Stoelting) for the measurement of systemic arterial blood pressure (BP) by means of a preamplifier (Hg-02, Experimetria). Hydroxylamine derivatives disclosed in Example 5 were administered via the venous cannule to jugular vein (i.v.) and orally (p.o.). Heart rate (HR) was measured by a cardiotachometer (HR-01, Experimetria). The electrocardiogram (ECG standard lead II) was recorded on a devices recorder (MR-12, Medicor) by means of subcutaneous steel needles electrodes. The chest was opened by a left thoracotomy and the heart was exteriorized by a gentle pressure on the right side of the rib cage. A 4-0 silk suture was quickly placed under the main left coronary artery as described by Selye et al. (1960). The heart was carefully replaced in the chest and the animal left to recover. Rectal temperature was monitored and kept constant at 37 C. The experimental protocol was initiated with a 15 minute stabilization period during which the observation of a sustained blood pressure less than 70 mmHg and or the occurrence of anhythmia led to exclusion. Myocardial ischemia was induced with coronary occlusion for 5 minutes and reperfusion allowed for 10 minutes.
During the entire experiment BP, HR and ECG were continuously registered on a multiscriptor (R61-6CH, Medicor). Hydroxylamine derivatives, the tautomeric forms of which are represented by structures (I) and (II), were administered 5 to 60 minutes before the occlusion after i.v. and p.o. treatment, respectively. […]
The mean duration of ventricular tachycardia (VT) and/or ventricular fibrillation (VF) during the first 3 minutes of reperfusion was analyzed by one-way analysis of variance. The incidence of VF was analyzed using a chi-square test. […] The haemodynamic variables were analyzed using Student's “t”-test. The critical level of significance was set at p<0.05. All results were expressed as a means±S.E.M. Drugs were administered i.v. in a dose of 1 mg/kgbw 5 min. before the occlusion.
The hydroxylamine derivatives that are found to be particularly advantageous for protecting an animal against ischemic/reperfusion injury are listed below. Survival (%) indicates the percent of animals survived the effects of 5 minutes coronary occlusion.

**Q.** `O=C(O)/C=C\C(=O)O.OC(CON=C(Cl)c1cccnc1)CN1CCCC1` (stereo not drawn) [N-[2-hydroxy-3-(pyrrolidin-1-yl)-propoxy]-3-pyridincarboximidoyl chloride (Z)-2-butendioate (1:1)] was tested. Which “Survival (%)” value did it give?
**A.** 67%

**Q.** How did the “Survival (%)” value turn out when `O=C(NOCC(O)CN1CCCCC1)Nc1cccc([N+](=O)[O-])c1` (stereo not drawn) [Example 63, N-(3-nitro-phenyl)-N′-[(2-hydroxy-3-(1-piperidinyl)propoxy)]-urea] was run?
**A.** 50%

**Q.** With `COC(=NOCC(O)CN1CCCCC1)c1cccnc1.O=C(O)/C=C\C(=O)O` (stereo not drawn) [Example 66, Methyl-N-[2-hydroxy-3-(1-piperidinyl)propoxy]-3-pyridinecarboximidate (Z)-2-butenedioate (1:1)] as the compound, how does the “Survival (%)” value read?
**A.** 57%

**Q.** Which “Survival (%)” value does the source give for `O=C(O)/C=C\C(=O)O.OC(CON=C(Cl)c1cccnc1)CN1CCOCC1` (stereo not drawn) [N-[2-hydroxy-3-(morpholin-1-yl-propoxy]-3-pyridincarboxamidoyl chloride (Z)-2-butendioate (1:1)] here?
**A.** 71%

**Q.** For `CC(C)(C)NCC(O)CONC(=N)c1cccc(C(F)(F)F)c1.Cl.Cl` (stereo not drawn) [Example 47, N-[3-[(1,1-dimethylethyl)amino]-2-hydroxypropoxy]-3-trifluoromethyl-benzenecarboximidamide dihydrochloride], which “Survival (%)” value is on record?
**A.** 100%

**Q.** Which “Survival (%)” value does the source give for `Cl.OC(CON=C(Cl)c1cccc(C(F)(F)F)c1)CN1CCCCC1` (stereo not drawn) [Example 13, N-[2-hydroxy-3-(1-piperidinyl)propoxy]-3-trifluoromethyl-benzenecarboximidoyl chloride monohydrochloride] here?
**A.** 60%

**Q.** `C[n+]1cccc(C(Cl)=NOCC(O)C[N+]2(C)CCCCC2)c1.[I-].[I-]` (stereo not drawn) [Example 16, N′-[2-hydroxy-3-(1-methyl-1-piperidinium-1-yl)propoxy]-N-methyl-pyridinium-3-carboximidoyl chloride diiodide] was tested. Which “Survival (%)” value did it give?
**A.** 67%

**Q.** With `O=C(NOCC(O)CN1CCCCC1)c1cccc2ccccc12` (stereo not drawn) [Example 54, N-[2-hydroxy-3-(1-piperidinyl)propoxy]naphthalene-1-carboxamide] as the compound, how does the “Survival (%)” value read?
**A.** 80%

**Q.** With `Cl.OC(CON=C(Cl)c1ccco1)CN1CCCCC1` (stereo not drawn) [Example 7, N-[2-hydroxy-3-(1-piperidinyl)propoxy]-2-furanecarboximidoyl chloride monohydrochloride] as the compound, how does the “Survival (%)” value read?
**A.** 80%

**Q.** Which “Survival (%)” value does the source give for `CC(C)NCC(O)CON=C(Cl)c1cccnc1.O=C(O)/C=C\C(=O)O` (stereo not drawn) [N-[2-hydroxy-3-prop-2-yl-amino)-propoxy]-3-pyridincarboximidoyl chloride (Z)-butendioate (1:1)] here?
**A.** 60%

**Q.** With `CC(C)(C)NCC(O)CON=C(Cl)c1cccnc1.O=C(O)/C=C\C(=O)O` (stereo not drawn) [N-[2-hydroxy-3-(tert-butyl-amino)-propoxy]-3-pyridincarboxamidoyl chloride (Z)-2-butendioate (1:1)] as the compound, how does the “Survival (%)” value read?
**A.** 57%

**Q.** Which “Survival (%)” value does the source give for `CC(C)(C)NC(=O)NOCC(O)CN1CCCCC1` (stereo not drawn) [Example 62, N-tert-butyl-N′-[(2-hydroxy-3-(1-piperidinyl)propoxy)]-urea] here?
**A.** 57%

**Q.** Which “Survival (%)” value does the source give for `COc1ccc(CC(Cl)=NOCC(O)CN2CCCCC2)cc1OC` (stereo not drawn) [N-[2-hydroxy-3-(1-piperidyl)-propoxy]-∀-(3,4-dimethoxy-phenyl)-acetimidoyl chloride] here?
**A.** 67%

**Q.** How did the “Survival (%)” value turn out when `CCN(CC)CC(O)CON=C(Cl)c1cccnc1.Cl` (stereo not drawn) [N-[2-hydroxy-3-(diethyl-amino)-propoxy]-3-pyridincarboximidoyl chloride hydrochloride (1:1)] was run?
**A.** 62%

**Q.** For `N=C(NOCC(CN1CCCCC1)OC(=O)c1ccccc1)c1cccnc1.O=C(O)/C=C\C(=O)O` (stereo not drawn) [Example 20, N-[2-benzoyloxy-3-(1-piperidinyl)propoxy]-3-pyridinecarboximidamide (Z)-2-butenedioate (1:1)], which “Survival (%)” value is on record?
**A.** 100%

**Q.** For `CC(C)NCC(O)CON=C(Cl)c1cccc(C(F)(F)F)c1.Cl` (stereo not drawn) [Example 10, N-[2-hydroxy-3-[(1-methylethyl)amino]propoxy]-3-trifluoromethyl-benzene-carboximidoyl chloride monohydrochloride], which “Survival (%)” value is on record?
**A.** 67%
